According to patent publication US6096930A, “Herbicidal cyclohexane-1,3-dione derivatives and their preparation process” (Korea Research Institute of Chemical Technology, priority 1994, dated 2000):
Read-outs that look alike come from different tables or passages of the source.

Tests used:
Experiment in all cases: Herbicidal activity for paddy test
Type in all cases: in vivo
ECHOR = conditions: for pest or weed control at 2 g/ha: 0.002 kg/ha; for pest or weed control at 8 g/ha: 0.008 kg/ha; for pest or weed control at 31 g/ha: 0.031 kg/ha; for pest or weed control at 125 g/ha: 0.125 kg/ha; for pest or weed control at 500 g/ha: 0.500 kg/ha
Excerpt: (§1) The sterilized sandy loam soil is filled in test pot having a surface area of 348 cm^2 for upland test conditions or 115 cm^2 for paddy test species were planted in furrows.
(§2) The herbicidal activity data were taken visually by percent control, wherein 0 signifies no herbicidal effect and 100 signifies complete kill.

MOOVA = conditions: for pest or weed control at 2 g/ha: 0.002 kg/ha; for pest or weed control at 8 g/ha: 0.008 kg/ha; for pest or weed control at 31 g/ha: 0.031 kg/ha; for pest or weed control at 125 g/ha: 0.125 kg/ha; for pest or weed control at 500 g/ha: 0.500 kg/ha
Excerpt: as §1, §2

ORYSA = conditions: for plant injury at 2 g/ha: 0.002 kg/ha; for plant injury at 8 g/ha: 0.008 kg/ha; for plant injury at 31 g/ha: 0.031 kg/ha; for plant injury at 125 g/ha: 0.125 kg/ha; for plant injury at 500 g/ha: 0.500 kg/ha
Excerpt: as §1, §2

SAGPY = conditions: for pest or weed control at 2 g/ha: 0.002 kg/ha; for pest or weed control at 8 g/ha: 0.008 kg/ha; for pest or weed control at 31 g/ha: 0.031 kg/ha; for pest or weed control at 125 g/ha: 0.125 kg/ha; for pest or weed control at 500 g/ha: 0.500 kg/ha
Excerpt: as §1, §2

SCPJU = conditions: for pest or weed control at 2 g/ha: 0.002 kg/ha; for pest or weed control at 8 g/ha: 0.008 kg/ha; for pest or weed control at 31 g/ha: 0.031 kg/ha; for pest or weed control at 125 g/ha: 0.125 kg/ha; for pest or weed control at 500 g/ha: 0.500 kg/ha
Excerpt: as §1, §2

[1] = 3 Leaf, read-out: Herbicidal activity, ORYSA (3 Leaf)
[2] = seed, read-out: Herbicidal activity, ORYSA (seed)

SMILES	pest or weed control at 2 g/ha (ECHOR) [%]	pest or weed control at 8 g/ha (ECHOR) [%]	pest or weed control at 31 g/ha (ECHOR) [%]	pest or weed control at 125 g/ha (ECHOR) [%]	pest or weed control at 500 g/ha (ECHOR) [%]	pest or weed control at 2 g/ha (MOOVA) [%]	pest or weed control at 8 g/ha (MOOVA) [%]	pest or weed control at 31 g/ha (MOOVA) [%]	pest or weed control at 125 g/ha (MOOVA) [%]	pest or weed control at 500 g/ha (MOOVA) [%]	plant injury at 2 g/ha (ORYSA; [1]) [%]	plant injury at 8 g/ha (ORYSA; [1]) [%]	plant injury at 31 g/ha (ORYSA; [1]) [%]	plant injury at 125 g/ha (ORYSA; [1]) [%]	plant injury at 500 g/ha (ORYSA; [1]) [%]	plant injury at 2 g/ha (ORYSA; [2]) [%]	plant injury at 8 g/ha (ORYSA; [2]) [%]	plant injury at 31 g/ha (ORYSA; [2]) [%]	plant injury at 125 g/ha (ORYSA; [2]) [%]	plant injury at 500 g/ha (ORYSA; [2]) [%]	further results
C=CCON=C(CC)C1=C(O)CC(c2c(C)c(C)c3c(c2Cl)CC(C)(C)C3)CC1=O (stereo not drawn) [Compound 40]	0	0	0	100	100	0	0	0	0	0	0	0	0	0	0	0	0	0	0	100	pest or weed control at 2 g/ha (SAGPY): 0%; pest or weed control at 8 g/ha (SAGPY): 0%; pest or weed control at 31 g/ha (SAGPY): 0%; pest or weed control at 125 g/ha (SAGPY): 0%; pest or weed control at 500 g/ha (SAGPY): 0%; pest or weed control at 2 g/ha (SCPJU): 0%; pest or weed control at 8 g/ha (SCPJU): 0%; pest or weed control at 31 g/ha (SCPJU): 0%; pest or weed control at 125 g/ha (SCPJU): 0%; pest or weed control at 500 g/ha (SCPJU): 0%
C=CCON=C(CCC)C1=C(O)CC(c2c(C)c(C)c3c(c2C)CC(C)(CC)C3)CC1=O (stereo not drawn) [Compound 18]	0	30	70	100	100	0	0	0	0	0	0	0	0	0	0	0	0	0	30	100	pest or weed control at 2 g/ha (SAGPY): 0%; pest or weed control at 8 g/ha (SAGPY): 0%; pest or weed control at 31 g/ha (SAGPY): 0%; pest or weed control at 125 g/ha (SAGPY): 0%; pest or weed control at 500 g/ha (SAGPY): 0%; pest or weed control at 2 g/ha (SCPJU): 0%; pest or weed control at 8 g/ha (SCPJU): 0%; pest or weed control at 31 g/ha (SCPJU): 0%; pest or weed control at 125 g/ha (SCPJU): 0%; pest or weed control at 500 g/ha (SCPJU): 0%
CCC(=NOCC=CCl)C1=C(O)CC(c2c(C)c(C)c3c(c2C)CC(C)(C)C3)CC1=O (stereo not drawn) [Compound 4]	0	100	100	100	100	0	0	0	0	0	0	0	0	10	40	0	0	100	100	100	pest or weed control at 2 g/ha (SAGPY): 0%; pest or weed control at 8 g/ha (SAGPY): 0%; pest or weed control at 31 g/ha (SAGPY): 0%; pest or weed control at 125 g/ha (SAGPY): 0%; pest or weed control at 500 g/ha (SAGPY): 50%; pest or weed control at 2 g/ha (SCPJU): 0%; pest or weed control at 8 g/ha (SCPJU): 0%; pest or weed control at 31 g/ha (SCPJU): 0%; pest or weed control at 125 g/ha (SCPJU): 0%; pest or weed control at 500 g/ha (SCPJU): 0%
C=CCON=C(CC)C1=C(O)CC(c2c(C)c3c(c(C)c2Cl)CC(C)(C)C3)CC1=O (stereo not drawn) [Compound 23]	0	40	100	100	100	0	0	0	0	0	0	0	0	0	60	0	10	100	100	100	pest or weed control at 2 g/ha (SAGPY): 0%; pest or weed control at 8 g/ha (SAGPY): 0%; pest or weed control at 31 g/ha (SAGPY): 0%; pest or weed control at 125 g/ha (SAGPY): 0%; pest or weed control at 500 g/ha (SAGPY): 0%; pest or weed control at 2 g/ha (SCPJU): 0%; pest or weed control at 8 g/ha (SCPJU): 0%; pest or weed control at 31 g/ha (SCPJU): 0%; pest or weed control at 125 g/ha (SCPJU): 0%; pest or weed control at 500 g/ha (SCPJU): 0%
CCCC(=NOCC)C1=C(O)CC(c2c(C)c(C)c3c(c2C)CC(C)(C)C3)CC1=O (stereo not drawn) [Compound 7]	95	95	100	100	100	0	0	0	0	0	0	0	0	20	65	0	20	100	100	100	pest or weed control at 2 g/ha (SAGPY): 0%; pest or weed control at 8 g/ha (SAGPY): 0%; pest or weed control at 31 g/ha (SAGPY): 0%; pest or weed control at 125 g/ha (SAGPY): 0%; pest or weed control at 500 g/ha (SAGPY): 40%; pest or weed control at 2 g/ha (SCPJU): 0%; pest or weed control at 8 g/ha (SCPJU): 0%; pest or weed control at 31 g/ha (SCPJU): 0%; pest or weed control at 125 g/ha (SCPJU): 0%; pest or weed control at 500 g/ha (SCPJU): 0%
CCON=C(CC)C1=C(O)CC(c2c(C)c(C)c3c(c2Cl)CC(C)(C)C3)CC1=O (stereo not drawn) [Compound 39]	0	80	100	100	100	0	0	0	0	0	0	0	0	0	80	0	0	100	100	100	pest or weed control at 2 g/ha (SAGPY): 0%; pest or weed control at 8 g/ha (SAGPY): 0%; pest or weed control at 31 g/ha (SAGPY): 0%; pest or weed control at 125 g/ha (SAGPY): 0%; pest or weed control at 500 g/ha (SAGPY): 0%; pest or weed control at 2 g/ha (SCPJU): 0%; pest or weed control at 8 g/ha (SCPJU): 0%; pest or weed control at 31 g/ha (SCPJU): 0%; pest or weed control at 125 g/ha (SCPJU): 0%; pest or weed control at 500 g/ha (SCPJU): 0%
CCC(=NOC)C1=C(O)CC(c2c(C)c3c(c(C)c2Cl)CC(C)(C)C3)CC1=O (stereo not drawn) [Compound 21]	40	95	100	100	100	0	30	50	60	70	0	0	0	80	100	20	100	100	100	100	pest or weed control at 2 g/ha (SAGPY): 0%; pest or weed control at 8 g/ha (SAGPY): 0%; pest or weed control at 31 g/ha (SAGPY): 0%; pest or weed control at 125 g/ha (SAGPY): 0%; pest or weed control at 500 g/ha (SAGPY): 0%; pest or weed control at 2 g/ha (SCPJU): 0%; pest or weed control at 8 g/ha (SCPJU): 0%; pest or weed control at 31 g/ha (SCPJU): 0%; pest or weed control at 125 g/ha (SCPJU): 0%; pest or weed control at 500 g/ha (SCPJU): 0%
CCCC(=NOC)C1=C(O)CC(c2c(C)c3c(c(C)c2Cl)CC(C)(C)C3)CC1=O (stereo not drawn) [Compound 25]	0	0	100	100	100	0	0	0	0	0	0	0	0	0	50	0	0	60	100	100	pest or weed control at 2 g/ha (SAGPY): 0%; pest or weed control at 8 g/ha (SAGPY): 0%; pest or weed control at 31 g/ha (SAGPY): 0%; pest or weed control at 125 g/ha (SAGPY): 0%; pest or weed control at 500 g/ha (SAGPY): 0%; pest or weed control at 2 g/ha (SCPJU): 0%; pest or weed control at 8 g/ha (SCPJU): 0%; pest or weed control at 31 g/ha (SCPJU): 0%; pest or weed control at 125 g/ha (SCPJU): 0%; pest or weed control at 500 g/ha (SCPJU): 0%
